Marks after values point to notes of the source that are not given here.
Tests used:
[1] = Cardiovascular safety pharmacology study in awake telemeterized dogs; format: in vivo, beagle dogs; conditions: single oral doses of 30, 60, and 120 mg/kg, male dogs
CYP1A2 = molecular target: T1, CYP1A2 (Homo sapiens, UniProt P05177); assay: CYP inhibition in human hepatic microsomes or recombinant isoenzymes: CYP1A2; format: in vitro ADME
T1 construct: host or cells: human hepatic microsomes or human recombinant isoenzymes
T1 sequence (P05177 whole entry): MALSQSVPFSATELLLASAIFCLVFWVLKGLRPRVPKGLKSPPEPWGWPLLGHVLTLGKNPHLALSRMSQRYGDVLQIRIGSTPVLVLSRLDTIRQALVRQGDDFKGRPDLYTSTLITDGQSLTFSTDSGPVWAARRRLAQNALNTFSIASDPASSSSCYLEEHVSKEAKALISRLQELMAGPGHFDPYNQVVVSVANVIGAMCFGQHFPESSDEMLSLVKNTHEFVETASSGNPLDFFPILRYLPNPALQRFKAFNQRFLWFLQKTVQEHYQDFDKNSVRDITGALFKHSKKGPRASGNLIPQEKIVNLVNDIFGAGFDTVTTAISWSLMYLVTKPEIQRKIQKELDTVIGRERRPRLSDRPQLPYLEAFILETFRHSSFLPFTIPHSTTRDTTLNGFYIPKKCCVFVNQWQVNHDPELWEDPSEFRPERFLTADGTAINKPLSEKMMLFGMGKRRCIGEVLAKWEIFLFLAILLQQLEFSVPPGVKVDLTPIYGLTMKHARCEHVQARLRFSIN
Description: (§1) It is possible that in certain clinical trial subjects, such agents may need to be adjusted for dosing or replaced by alternative agents that are not metabolized by CYP2D6, particularly when such agents may have a low therapeutic index.

[2] = system: VEGF secreting cell lines; assay: Cell cycle effects in several VEGF secreting human tumor cell lines (PI flow cytometry, Table 25); format: cell-based; conditions: all of the tested tumor types; 10 nM or 100 nM, 18 hours
Protocol: Experimental Design. Several VEGF secreting cell lines were assayed for cell cycle effects. […] At the completion of treatment, cells were harvested and cellular DNA content was analyzed via PI staining and flow cytometry (as described in Section 9.3.1.1).

CYP2C9 = molecular target: T2, CYP2C9 (Homo sapiens, UniProt P11712); assay: CYP inhibition in human hepatic microsomes or recombinant isoenzymes: CYP2C9; format: in vitro ADME
T2 construct: host or cells: human hepatic microsomes or human recombinant isoenzymes
T2 sequence (P11712 whole entry): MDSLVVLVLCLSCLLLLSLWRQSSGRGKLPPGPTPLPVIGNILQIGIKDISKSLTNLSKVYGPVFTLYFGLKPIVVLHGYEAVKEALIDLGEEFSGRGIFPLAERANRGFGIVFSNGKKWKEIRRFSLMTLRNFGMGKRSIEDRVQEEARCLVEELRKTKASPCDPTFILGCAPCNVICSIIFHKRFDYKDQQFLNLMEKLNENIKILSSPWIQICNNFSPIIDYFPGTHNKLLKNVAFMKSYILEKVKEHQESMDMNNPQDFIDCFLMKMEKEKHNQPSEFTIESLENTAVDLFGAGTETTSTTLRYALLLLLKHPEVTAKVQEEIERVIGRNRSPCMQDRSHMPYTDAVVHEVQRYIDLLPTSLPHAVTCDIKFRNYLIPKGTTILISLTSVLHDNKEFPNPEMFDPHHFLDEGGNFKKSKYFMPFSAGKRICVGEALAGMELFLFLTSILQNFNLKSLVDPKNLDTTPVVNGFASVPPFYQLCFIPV
Description: as §1

[3] = system: SKNEP orthotopic xenografts; assay: Orthotopic SKNEP Ewing sarcoma tumor model (kidney capsule), tumor weight; format: in vivo; conditions: 5 weeks of treatment
Description: Experimental Design. In orthotopic tumor models, human tumor cells are implanted into the mouse in an organ that corresponds to the location from which the tumors arise. Such models may provide a better predictor of clinical efficacy than injection of tumors into the flanks of nude mice. See Hoffman, Invest. New Drugs 1999, 17(4):343-59. SY5Y neuroblastoma or SKNEP Ewing sarcoma tumor cells (1×10^6 cells/mouse) were implanted into the kidney capsule of female athymic nude mice according to published methods. See Huang et al., Proc. Natl. Acad. Sci. USA 2003, 100(13):7785-90. One week after implantation of each type of tumor, mice were divided into 2 groups and were administered a test Compound as shown in Table 21.
After 5 weeks of treatment, the mice were sacrificed, and the weights of the tumors were assessed.

HT1080 xenografts [4] = assay: BrdU labeling of tumor cells from HT1080 xenografts in vivo; design: species or system athymic nude mice; conditions: HT1080 xenografts, 1, 2, or 3 days of treatment
Protocol: Experimental Design. HT1080 cells (5×10^6 cells/mouse) were implanted subcutaneously in male athymic nude mice.
The mice were sacrificed 3 hours later, and the tumors collected. A single cell suspension was prepared from the tumor cells. The cells were permeabilized and an antibody to BrdU was used to stain cells that had entered S phase during the labeling period. The proportion of cells actively synthesizing DNA was determined by cell sorting.

LNCaP xenografts = assay: Tumor growth inhibition in LNCaP prostate cancer xenografts; format: in vivo, athymic nude mice
Protocol: Experimental Design. The LNCaP cell line is derived from a lymph node metastasis.
Tumor size was measured by calipers at periodic intervals during the study. When the mean tumor size in a mouse exceeded 1500 mm^3, mice in that group were sacrificed and both tumor and plasma were assayed for pathologic VEGF concentration as described in Section 9.1.1.1.

[5] = Phase 1 escalating multiple-dose study in healthy volunteers: safety and tolerability; format: in vivo; conditions: through the highest dose level tested ([…] TID)
Protocol: The study was performed under the oversight of the French health authorities. The study was not performed under an IND.
Methods. The trial was a Phase 1, randomized, escalating multiple dose, single center study conducted in 2 stages.

soluble VEGF isoforms = assay: ELISA of soluble VEGF production in nontransformed keratinocytes under hypoxia or normoxia; format: cell-based, human; conditions: normoxic, 72 hours
Protocol: Experimental Design. Nontransformed normal human keratinocyte cell cultures were established under normoxic conditions (21% oxygen). […] At the completion of treatment, cells were assessed for viability with an ATP assay and conditioned media were evaluated for VEGF protein levels by ELISA (as described in Section 9.1.1.1).

HT1080 xenografts [6] = assay: Dose response assessment in nude mice bearing HT1080 xenografts (tumor and plasma human VEGF, tumor size, trough plasma level); format: in vivo, athymic nude mice
Protocol: Experimental Study Design. HT1080 cells (5×10^6 cells/mouse) were implanted subcutaneously in male athymic nude mice.
Tumor size was measured using calipers at periodic intervals during the study (data shown in Section 9.2.2). […] Mice were sacrificed, and excised tumors were homogenized in buffer containing protease inhibitors. Both terminal intratumoral and pathologic plasma human VEGF levels were measured using an ELISA that recognizes human VEGF121 and VEGF165 (as described in Section 9.1.1.1). Intratumoral VEGF levels were normalized to the total tumor protein concentration, while pathologic plasma human VEGF levels were expressed in pg/mL of plasma.
Experimental Design. The experimental design was reported in Section 9.1.2.2.

[7] = Oral pharmacokinetics in mice; format: in vivo
Protocol: The pharmacokinetic evaluations in mice were adjuncts to the primary pharmacodynamic xenograft studies. The evaluations in rats included toxicokinetic assessments in single-dose, 7-day, and 28-day toxicology studies as well as a mass-balance study after a single oral dose of ^14C-Compound #10. The evaluations in dogs included toxicokinetic assessments in 7-day and 28-day toxicology studies. In the studies performed, rodents were dosed once daily with Compound #10 formulated in vehicle and administered via oral gavage.

[8] = Respiratory safety pharmacology study in awake telemeterized dogs; format: in vivo, beagle dogs; conditions: single oral doses of 30, 60, and 120 mg/kg, male dogs
HT1080 cells = assay: Cell cycle analysis by propidium iodide flow cytometry in HT1080 cells (S-phase accumulation, Table 24); format: cell-based, human; conditions: HT1080, normoxic, 18 hours
Protocol: Experimental Design. […] After treatment, cells were trypsinized, and stained with propidium iodide (PI) dye to measure DNA content of individual cells by flow cytometry. Output comprised histograms showing relative DNA content in 10,000 cells.
While compounds which cause greater than 20% of the cells to accumulate in S-phase at 100 nM are considered active, a larger percentage of cells may be accumulated in S-phase at lower doses depending on the Compound, as shown in FIG. 12 for example.

CYPC19 = molecular target: T3, CYPC19 (Homo sapiens, UniProt P33261); assay: CYP inhibition in human hepatic microsomes or recombinant isoenzymes: CYPC19; format: in vitro ADME
T3 construct: host or cells: human hepatic microsomes or human recombinant isoenzymes
T3 sequence (P33261 whole entry): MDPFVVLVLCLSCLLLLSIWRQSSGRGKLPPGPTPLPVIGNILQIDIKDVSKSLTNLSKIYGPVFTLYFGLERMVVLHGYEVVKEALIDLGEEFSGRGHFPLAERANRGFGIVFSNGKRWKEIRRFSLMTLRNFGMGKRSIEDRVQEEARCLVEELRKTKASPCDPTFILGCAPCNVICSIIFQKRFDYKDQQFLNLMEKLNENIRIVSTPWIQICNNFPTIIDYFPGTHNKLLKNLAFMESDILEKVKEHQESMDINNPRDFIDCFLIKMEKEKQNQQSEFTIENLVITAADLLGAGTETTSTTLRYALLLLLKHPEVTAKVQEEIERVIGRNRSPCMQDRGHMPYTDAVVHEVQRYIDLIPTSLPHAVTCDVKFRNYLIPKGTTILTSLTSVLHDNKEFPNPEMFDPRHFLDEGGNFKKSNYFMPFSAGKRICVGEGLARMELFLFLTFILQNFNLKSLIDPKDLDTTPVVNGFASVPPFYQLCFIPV
Description: as §1

[9] = 28-day oral toxicity study in dogs with 15-day recovery
Protocol: The L23 vehicle was used. […] All studies in the toxicology program were conducted according to GLP regulations.

[10] = In vitro plasma protein binding of 14C-radiolabeled Compound #10; format: in vitro ADME, mice, rats, dogs, monkeys, and humans; conditions: 0.05 to 50 μg/mL

## COc1ccc(C2c3[nH]c4ccc(Cl)cc4c3CCN2C(=O)Oc2ccc(Cl)cc2)cc1 (racemic) [Compound #10]
[1]
  cardiovascular or electrocardiographic (including QT interval) parameters: no meaningful changes
CYP1A2
  inhibition of CYP1A2 (in words): No meaningful inhibition
[2]
  cell cycle delay versus inhibition of VEGF production (in words): coincident with the inhibition of VEGF production
CYP2C9
  inhibition of CYP2C9 (in words): No meaningful inhibition
[3]
  tumor growth (tumor weight) (in words): completely prevented growth
HT1080 xenografts [4]
  BrdU staining of tumor cells (fraction in S phase) (in words): increased BrdU staining
LNCaP xenografts; 10 mg/kg M-W-F
  time to tumor progression (time to reach ≧1000 mm^3) (in words): prolonged
LNCaP xenografts; 10 mg/kg M-W-F, day of sacrifice
  intratumoral VEGF concentrations adjusted for tumor size (in words): reduced
LNCaP xenografts; LNCaP xenografts in male nude mice, 10 mg/kg oral M-W-F, adjusted for tumor size
  Mean % Inhibition of Intratumoral VEGF vs Vehicle at Sacrifice: 51^d %
[5]
  dose limiting toxicities: no dose limiting toxicities were observed
Soluble VEGF isoforms
  decrease in VEGF concentrations in conditioned media: 21%
HT1080 xenografts [6]; all Compound #10 dose groups (0.3 to 10 mg/kg oral), 18 days
  pathologic human VEGF levels in tumors and in plasma (in words): significantly suppressed
HT1080 xenografts [6]; all dose levels of >=1 mg/kg BID
  human VEGF reductions (in words): essentially maximal
HT1080 xenografts [6]; dose levels of >=1 mg/kg BID
  antitumor activity, tumor size over time (in words): maximum antitumor activity
HT1080 xenografts [6]; suboptimal dose of 0.3 mg/kg BID
  tumor and pathologic plasma human VEGF concentrations (in words): partial reductions
[7]
  oral bioavailability (in words): orally bioavailable
[7]; oral
  relationship between dose and plasma exposure (in words): bell-shaped curve
[8]
  respiratory rate, core body temperature, arterial blood gases, arterial pH, arterial bicarbonate: no dose dependent or biologically significant changes
HT1080 cells
  concentration from which an accumulation of cells in S phase can be observed: ≥ 1 nM
HT1080 cells; Compound #10 0.3 nM to 100 nM, Compound 1205 10 nM
  cell cycle distribution, DNA content (in words): induced a redistribution of the cycling characteristics of the cell population
CYPC19
  inhibition of CYPC19 (in words): No meaningful inhibition
[9]; dogs, 5, 15, and 30 mg/kg/dose BID, 28 days
  dose at which maximal exposures occurred: 30 mg/kg/dose BID
[9]; dogs, low- and mid-dose levels (5, 15 mg/kg/dose BID), 28 days
  clinical tolerability: clinically well tolerated
[9]; dogs, oral capsules
  NOAEL for 28-days: 15 mg/kg/dose BID
[10]
  concentration dependence of protein binding (in words): independent of concentration

Reference: patent US8697662B2, “Methods for treating Kaposi sarcoma” (PTC Therapeutics, Inc., priority 2009, dated 2014)
